Measured values from patent US12091425B2 (AMGEN INC., priority 2016, dated 2024).

Biological target: T1, Mcl-1/Bim interaction, recombinant human Mcl-1 (171-327) (Homo sapiens, UniProt Q07820)
T1 construct: made in house
Test: Cell free Mcl-1: Bim Affinity Assay (Mcl-1 HTRF)
Assay type: binding
Conditions: cell free Mcl-1:Bim TR-FRET, recombinant human Mcl-1 (171-327)
Protocol: Cell free Mcl-1: Bim Affinity Assay (Mcl-1 HTRF)
The inhibition of the Mcl-1/Bim interaction was measured using a time-resolved fluorescence resonance energy transfer (TR-FRET) assay. […] A biotinylated peptide derived from human Bim (residues 51-76) was purchased from CPC Scientific (San Jose, CA). The TR-FRET assay was conducted in a 384-well white OptiPlatem (PerkinElmer, Waltham, MA) in a total volume of 40 μL. […] The reaction plates were further incubated overnight and then were read on an Envision® multimode reader (PerkinElmer). […] The IC50 values of test compounds were determined from duplicate data by analyzing competition curves using a four-parameter sigmoidal model in GraphPad Prism (GraphPad Software, San Diego, CA) or in Genedata Screener® (Genedata, Basel, Switzerland).

T1 sequence (Q07820 171-327): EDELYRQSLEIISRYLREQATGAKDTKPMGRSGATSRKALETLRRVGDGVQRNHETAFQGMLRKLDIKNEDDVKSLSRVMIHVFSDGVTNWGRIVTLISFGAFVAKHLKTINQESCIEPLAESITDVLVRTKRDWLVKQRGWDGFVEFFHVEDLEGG

SMILES	IC50 [nM]
COc1cccc(NC(=O)C[C@@H]2CC/C=C/[C@H](O)[C@@H]3CC[C@H]3CN3C[C@@]4(CCCc5cc(Cl)ccc54)COc4ccc(cc43)C(=O)NS2(=O)=O)c1 (single isomer, unassigned) [Example 628]	3.9
COc1ccc(C)c(NC(=O)C[C@@H]2CC/C=C/[C@H](O)[C@@H]3CC[C@H]3CN3C[C@@]4(CCCc5cc(Cl)ccc54)COc4ccc(cc43)C(=O)NS2(=O)=O)c1 (single isomer, unassigned) [Example 629]	2.3
O=C(C[C@@H]1CC/C=C/[C@H](O)[C@@H]2CC[C@H]2CN2C[C@@]3(CCCc4cc(Cl)ccc43)COc3ccc(cc32)C(=O)NS1(=O)=O)Nc1ccccc1 (single isomer, unassigned) [Example 630]	1.61
O=C1C[C@H](O)[C@@H]2CC[C@H]2CN2C[C@@]3(CCCc4cc(Cl)ccc43)COc3ccc(cc32)C(=O)NS(=O)(=O)CCN1 (single isomer, unassigned) [Example 680]	26.8
O=C1C[C@H](O)[C@@H]2CC[C@H]2CN2C[C@@]3(CCCc4cc(Cl)ccc43)COc3ccc(cc32)C(=O)NS(=O)(=O)CCN1 (single isomer, unassigned) [Example 681]	29
COC1C=CCCC(C(C)(C)O)S(=O)(=O)NC(=O)c2ccc3c(c2)N(CC2CCC21)CC1(CCCc2cc(Cl)ccc21)CO3 (single isomer, unassigned) [Example 682]	1.78
O=C1NS(=O)(=O)C[C@@H](C2CC2)C/C=C/[C@H](O)[C@@H]2CC[C@H]2CN2C[C@@]3(CCCc4cc(Cl)ccc43)COc3ccc1cc32 (single isomer, unassigned) [Example 684]	11
CC[C@@H]1CCCC[C@H](O)[C@@H]2CC[C@H]2CN2C[C@@]3(CCc4cc(Cl)ccc43)COc3ccc(cc32)C(=O)NS1(=O)=O (single isomer, unassigned) [Example 695, (1S,3′R,6′R,7′S,12′R)-5-chloro-12′-ethyl-7′-hydroxy-2,3-dihydro-15′H-spiro[indene-1,22′-[20]oxa[13]thia[1,14]diazatetracyclo[14.7.2.0^3,6.0^19,24]pentacosa [16,18,24]trien]-15′-one 13′,13′-dioxide or (1S,3′R,6′R,7′S,12′S)-5-chloro-12′-ethyl-7′-hydroxy-2,3-dihydro-15′H-spiro[indene-1,22′-[20]oxa[13]thia[1,14]diazatetracyclo[14.7.2.0^3,6.0^19,24]pentacosa [16,18,24]trien]-15′-one 13′,13′-dioxide]	2.04
CC(C)(O)[C@@H]1CC/C=C/[C@H](O)[C@@H]2CC[C@H]2CN2C[C@@]3(CCCc4cc(Cl)ccc43)COc3ccc(cc32)C(=O)NS1(=O)=O (single isomer, unassigned) [Example 696]	0.305
CC(C)(O)[C@@H]1CC/C=C/[C@H](O)[C@@H]2CC[C@H]2CN2C[C@@]3(CCCc4cc(Cl)ccc43)COc3ccc(cc32)C(=O)NS1(=O)=O (single isomer, unassigned) [Example 697]	0.746
CC[C@H]1CC/C=C/[C@H](O)[C@@H]2CC[C@H]2CN2C[C@@]3(CCc4cc(Cl)ccc43)COc3ccc(cc32)C(=O)NS1(=O)=O (single isomer, unassigned) [Example 699]	0.649
CC[C@H]1CC/C=C/[C@H](O)[C@@H]2CC[C@H]2CN2C[C@@]3(CCc4cc(Cl)ccc43)COc3ccc(cc32)C(=O)NS1(=O)=O (single isomer, unassigned) [Example 700]	27.7
O=C1NS(=O)(=O)C[C@H](c2ccccc2)C/C=C/[C@H](O)[C@@H]2CC[C@H]2CN2C[C@@]3(CCCc4cc(Cl)ccc43)COc3ccc1cc32 (single isomer, unassigned) [Example 704]	40.5
O=C1NS(=O)(=O)C[C@H](CO)/C=C/C[C@H](O)[C@@H]2CC[C@H]2CN2C[C@@]3(CCCc4cc(Cl)ccc43)COc3ccc1cc32 (single isomer, unassigned) [Example 706]	4.51
O=C1NS(=O)(=O)C[C@@H](CO)/C=C/C[C@H](O)[C@@H]2CC[C@H]2CN2C[C@@]3(CCCc4cc(Cl)ccc43)COc3ccc1cc32 (single isomer, unassigned) [Example 707]	2.25
O=C1NS(=O)(=O)C[C@H](CO)CCC[C@H](O)[C@@H]2CC[C@H]2CN2C[C@@]3(CCCc4cc(Cl)ccc43)COc3ccc1cc32 (single isomer, unassigned) [Example 708]	1.12
O=C1NS(=O)(=O)[C@H](CO)CCCC[C@H](O)[C@@H]2CC[C@H]2CN2C[C@@]3(CCCc4cc(Cl)ccc43)COc3ccc1cc32 (single isomer, unassigned) [Example 712]	0.995
O=C1NS(=O)(=O)[C@@H](CO)CCCC[C@H](O)[C@@H]2CC[C@H]2CN2C[C@@]3(CCCc4cc(Cl)ccc43)COc3ccc1cc32 (single isomer, unassigned) [Example 713]	1.71

SMILES	IC50 [nM]
COC1C=CCC(OC)C(C)S(=O)(=O)NC(=O)c2ccc3c(c2)N(CC2CCC21)CC1(CCCc2cc(Cl)ccc21)CO3 (single isomer, unassigned) [Example 717]	28.6
CC(C)[C@@H]1CCCC[C@H](O)[C@@H]2CC[C@H]2CN2C[C@@]3(CCCc4cc(Cl)ccc43)COc3ccc(cc32)C(=O)NS1(=O)=O (single isomer, unassigned) [Example 752]	4.39
CC(C)[C@@H]1CCCC[C@@H](O)[C@@H]2CC[C@H]2CN2C[C@@]3(CCCc4cc(Cl)ccc43)COc3ccc(cc32)C(=O)NS1(=O)=O (single isomer, unassigned) [Example 754]	8.93
C[C@H]1C/C=C/[C@H](O)[C@@H]2CC[C@H]2CN2C[C@@]3(CCCc4cc(Cl)ccc43)COc3ccc(cc32)C(=O)NS1(=O)=O (single isomer, unassigned) [Example 759]	3.98
C[C@H]1CCCC(=O)[C@@H]2CC[C@H]2CN2C[C@@]3(CCCc4cc(Cl)ccc43)COc3ccc(cc32)C(=O)NS1(=O)=O (single isomer, unassigned) [Example 760]	15.8
CC[C@@H]1/C=C/C[C@H](O)[C@@H]2CC[C@H]2CN2C[C@@]3(CCCc4cc(Cl)ccc43)COc3ccc(cc32)C(=O)NS1(=O)=O (single isomer, unassigned) [Example 766]	6.5
CCC1CCCC(O)C2CCC2CN2CC3(CCCc4cc(Cl)ccc43)COc3ccc(cc32)C(=O)NS1(=O)=O (single isomer, unassigned) [Example 768]	2.24
COC[C@H]1C/C=C/[C@H](O)[C@@H]2CC[C@H]2CN2C[C@@]3(CCCc4cc(Cl)ccc43)COc3ccc(cc32)C(=O)NS1(=O)=O (single isomer, unassigned) [Example 772]	5.2
COC[C@@H]1C/C=C/[C@H](O)[C@@H]2CC[C@H]2CN2C[C@@]3(CCCc4cc(Cl)ccc43)COc3ccc(cc32)C(=O)NS1(=O)=O (single isomer, unassigned) [Example 773]	2.35
COC[C@@]1(C)C/C=C/[C@H](O)[C@@H]2CC[C@H]2CN2C[C@@]3(CCCc4cc(Cl)ccc43)COc3ccc(cc32)C(=O)NS1(=O)=O (single isomer, unassigned) [Example 774]	1.72
CC(=O)N1CC[C@H](O)[C@@H]2CC[C@H]2CN2C[C@@]3(CCCc4cc(Cl)ccc43)COc3ccc(cc32)C(=O)NS(=O)(=O)CC1 (single isomer, unassigned) [Example 778]	6.89
O=C1NS(=O)(=O)CCOC[C@@H](O)C[C@H]2CC[C@H]2CN2C[C@@]3(CCCc4cc(Cl)ccc43)COc3ccc1cc32 (single isomer, unassigned) [Example 780, (3R,6R,8S,22S)-6′-chloro-8-hydroxy-3′,4′-dihydro-2′H,15H-spiro[10,20-dioxa-13-thia-1,14-diazatetracyclo[14.7.2.0^3,6.0^19,24]pentacosa-16,18,24-triene-22, 1′-naphthalen]-15-one-13, 13-dioxide or (3R,6R,8R,22S)-6′-chloro-8-hydroxy-3′,4′-dihydro-2′H,15H-spiro[10,20-dioxa-13-thia-1,14-diazatetracyclo[14.7.2.0^3,6.0^19,24]pentacosa-16,18,24-triene-22, 1′-naphthalen]-15-one-13, 13-dioxide]	4.84
O=C1NS(=O)(=O)CCOCCC[C@@H]2CC[C@H]2CN2C[C@@]3(CCCc4cc(Cl)ccc43)COc3ccc1cc32 (single isomer, unassigned) [Example 815]	1.26
O=C1NS(=O)(=O)CCOCCC[C@@H]2CC[C@H]2CN2C[C@@]3(CCc4cc(Cl)ccc43)COc3ccc1cc32 (single isomer, unassigned) [Example 816]	4.72
O=C1NS(=O)(=O)CCC/C=C/C[C@H](O)[C@@H]2CC[C@H]2CN2C[C@@]3(CCCc4cc(Cl)ccc43)COc3ccc1cc32 (single isomer, unassigned) [Example 833, (1S,3′R,6′R,7′S,9′E)-6-chloro-7′-hydroxy-3,4-dihydro-2H,16′H-spiro[naphthalene-1,23′-[21]oxa[14]thia[1,15]diazatetracyclo[15.7.2.0^3,6.0^20,25]hexacosa[9,17,19,25]tetraen]-16′-one 14′,14′-dioxide or (1S,3′R,6′R,7′S,9′Z)-6-chloro-7′-hydroxy-3,4-dihydro-2H,16′H-spiro[naphthalene-1,23′-[21]oxa[14]thia[1,15]diazatetracyclo[15.7.2.0^3,6.0^20,25]hexacosa [9,17,19,25]tetraen]-16′-one 14′,14′-dioxide]	5.12
O=C1NS(=O)(=O)CC/C=C/C[C@@H](O)[C@@H]2CC[C@H]2CN2C[C@@]3(CCCc4cc(Cl)ccc43)COc3ccc1cc32 (single isomer, unassigned) [Example 844]	11.1
O=C1NS(=O)(=O)CC/C=C\C[C@@H](O)[C@@H]2CC[C@H]2CN2C[C@@]3(CCCc4cc(Cl)ccc43)COc3ccc1cc32 (single isomer, unassigned) [Example 845]	4.32
